In patent US9763998B2, “Serpins: methods of therapeutic β-cell regeneration and function” (Joslin Diabetes Center, Inc., priority 2013, dated 2017):

Columns and labels:
[1] = test system: freshly isolated primary mouse islets (β-cells); assay: Primary mouse islet β-cell proliferation by Ki67 immunofluorescent staining (SerpinB1, ovalbumin, Sivelestat); format: cell-based
Excerpt: To test whether SerpinB1 is a β-cell growth factor, we cultured freshly isolated primary mouse islets in presence of various doses of recombinant human SerpinB1 or ovalbumin (SerpinB14) and evaluated β-cell proliferation by Ki67 immunofluorescent staining (known to those of ordinary skill in the art). […] A major substrate of SerpinB1 is neutrophil elastase. To investigate whether the proliferative action of SerpinB1 is mediated by antagonizing neutrophil elastase activity, we assessed the ability of the neutrophil elastase inhibitor, Sivelestat (Sivelestat is the International Nonproprietary Name (INN) as given by the World Health Organization (WHO); the chemical name is: N-{2-[({4-[(2,2-dimethylpropanoyl)oxy]phenyl}sulfonyl)amino]benzoyl}glycine), to stimulate islet β-cell proliferation in vitro.
In all experiments, cell counting was manually performed in a blinded fashion by a single observer. BrdU+ or Ki67+β cells were assessed by immunofluorescence microscopy. Insulin+ cells showing nuclear DAPI staining were considered as β cells. Insulin+ cells showing nuclear colocalized staining for DAPI+ and Ki67+ (or BrdU+) were counted as proliferating β cells. The double-positive cells (Ins+/BrdU+ or Ins+/Ki67+) were confirmed in randomly selected cells in all experiments by confocal microscopy.

[2] = test system: human (EndoC-βH1) β-cells; assay: Ki67 positive human β-cells (EndoC-βH1) with Sivelestat; format: cell-based; settings: 100 μg/ml; compared to non-treated cells
[3] = 1 μg/ml, SerpinB1 compared to islets cultured at a similar concentration of ovalbumin

Molecule | number of proliferating insulin+ cells ([1]; higher doses (e.g. 10 and 50 μg/ml)) | islet β-cell proliferation in vitro ([1]; low doses (1 and 5 μg/ml), FIG. 12) | number of Ki67 positive β-cells [2] | Ki67+ insulin+ cells (β-cell proliferation) [1, 3] | Ki67+ insulin+ cells (β-cell proliferation) ([1]; isolated mouse islets cultured with various doses of recombinant SerpinB1)
CC(C)(C)C(=O)Oc1ccc(S(=O)(=O)Nc2ccccc2C(=O)NCC(=O)O)cc1 [Sivelestat, N-{2-[({4-[(2,2-dimethylpropanoyl)oxy]phenyl}sulfonyl)amino]benzoyl}glycine] | substantial increase | do not enhance β-cell proliferation | increased | – | –
ovalbumin: ovalbumin (SerpinB14), control protein for SerpinB1 in islet culture | – | – | – | normal low β-cell proliferation | –
SerpinB1: 42 kD serine peptidase inhibitor protein regulating neutrophil proteases; used as recombinant human SerpinB1 (protein, UniProt P30740 1-379, looked up) Leukocyte elastase inhibitor: MEQLSSANTRFALDLFLALSENNPAGNIFISPFSISSAMAMVFLGTRGNTAAQLSKTFHFNTVEEVHSRFQSLNADINKRGASYILKLANRLYGEKTYNFLPEFLVSTQKTYGADLASVDFQHASEDARKTINQWVKGQTEGKIPELLASGMVDNMTKLVLVNAIYFKGNWKDKFMKEATTNAPFRLNKKDRKTVKMMYQKKKFAYGYIEDLKCRVLELPYQGEELSMVILLPDDIEDESTGLKKIEEQLTLEKLHEWTKPENLDFIEVNVSLPRFKLEESYTLNSDLARLGVQDLFNSSKADLSGMSGARDIFISKIVHKSFVEVNEEGTEAAAATAGIATFCMLMPEENFTADHPFLFFIRHNSSGSILFLGRFSSP | – | – | – | reached statistical significance | dose-dependent increase
